In ChEMBL document CHEMBL1201862, “PubChem BioAssay data set” (2004):
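These data come from cells grown in 96-well plates and exposed to compound for 48 hours at five concentrations. GI50 = concentration required for 50% inhibition of growth.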 Active and inactive are the calls of the source. No stated cut-off is given here; in the data, active = GI50 up to about 1.1 µM and inactive = higher. Square brackets hold non-standard residues; d marks the D form. Peptide text beside a SMILES is read from it. * marks the point of attachment. X26 = COC1=CC(=O)N(C(=O)[C@@H](O*)C(C)C)[C@H]1Cc1ccccc1; Bn2Val = CC(C)[C@@H](C(=O)*)N(Cc1ccccc1)Cc1ccccc1; NMeV = CN[C@H](C(=O)O)C(C)C; dNMeA = CN[C@H](C)C(=O)O

How the values were obtained:
Test in all cases: growth of human tumour cells (NCI), 48 h
SN12C = system: SN12C
IGROV-1 = system: IGROV-1
BT-549 = system: BT-549
SK-MEL-28 = system: SK-MEL-28
SNB-75 = system: SNB-75
A498 = system: A498
T47D = system: T47D
HT-29 = system: HT-29
EKVX = system: EKVX
PC-3 = system: PC-3
SF-539 = system: SF-539
HCT-116 = system: HCT-116
MDA-MB-231 = system: MDA-MB-231
RXF 393 = system: RXF 393
MDA-MB-435 = system: MDA-MB-435
SW-620 = system: SW-620
KM12 = system: KM12
NCI-H522 = system: NCI-H522
SK-MEL-5 = system: SK-MEL-5

SMILES	GI50 (SN12C)	GI50 (IGROV-1)	GI50 (BT-549)	GI50 (SK-MEL-28)	GI50 (SNB-75)	GI50 (A498)	GI50 (T47D)	GI50 (HT-29)	GI50 (EKVX)	GI50 (PC-3)	GI50 (SF-539)	GI50 (HCT-116)	GI50 (MDA-MB-231)	GI50 (RXF 393)	GI50 (MDA-MB-435)	GI50 (SW-620)	GI50 (KM12)	GI50 (NCI-H522)	GI50 (SK-MEL-5)
CC(=O)NNc1nc(C)c(C(/C=C/c2ccc3c(c2)OCO3)=N/NC(=O)c2ccncc2)s1	> 100 µM (inactive)	> 100 µM (inactive)	> 100 µM (inactive)	> 100 µM (inactive)	> 100 µM (inactive)	> 100 µM (inactive)	> 100 µM (inactive)	> 100 µM (inactive)	62.5 µM (inactive)	> 100 µM (inactive)	> 100 µM (inactive)	> 100 µM (inactive)	> 100 µM (inactive)	> 100 µM (inactive)	> 100 µM (inactive)	> 100 µM (inactive)	> 100 µM (inactive)	> 100 µM (inactive)	> 100 µM (inactive)
CC(NC(=O)CNP(=O)(c1ccccc1)c1ccccc1)C(=O)NC(Cc1ccccc1)C(=O)OCc1ccccc1 (stereo not drawn)	42.7 µM (inactive)	66.5 µM (inactive)	> 100 µM (inactive)	23.8 µM (inactive)	19.6 µM (inactive)	> 100 µM (inactive)	> 100 µM (inactive)	92.9 µM (inactive)	24.1 µM (inactive)	60.7 µM (inactive)	62.2 µM (inactive)	34.9 µM (inactive)	35.6 µM (inactive)	21 µM (inactive)	50.2 µM (inactive)	45.7 µM (inactive)	25.6 µM (inactive)	19.6 µM (inactive)	25.7 µM (inactive)
COc1ccc(Br)c(/C=N\c2cccc3cc(OC)c(OC)cc23)c1	12.8 µM (inactive)	25.8 µM (inactive)	8.3 µM (inactive)	13.3 µM (inactive)	38.8 µM (inactive)	> 78.5 µM (inactive)	58.5 µM (inactive)	20 µM (inactive)	97.1 µM (inactive)	11.1 µM (inactive)	2.64 µM (inactive)	4.35 µM (inactive)	15.5 µM (inactive)	39.1 µM (inactive)	2.8 µM (inactive)	7.08 µM (inactive)	21.1 µM (inactive)	> 61.1 µM (inactive)	17.5 µM (inactive)
O=[N+]([O-])c1ccc(S(=O)(=O)Cc2ccccc2)c([N+](=O)[O-])c1	1.91 µM (inactive)	2.6 µM (inactive)	2.1 µM (inactive)	4.06 µM (inactive)	7.48 µM (inactive)	15.6 µM (inactive)	1.35 µM (inactive)	2.18 µM (inactive)	1.87 µM (inactive)	1.78 µM (inactive)	1.99 µM (inactive)	1.87 µM (inactive)	2.11 µM (inactive)	1.75 µM (inactive)	1.75 µM (inactive)	1.51 µM (inactive)	7.38 µM (inactive)	0.748 µM (active)	2.12 µM (inactive)
CC(=O)Nc1nc(O)c2nc(C=O)cnc2n1	> 100 µM (inactive)	> 100 µM (inactive)	> 100 µM (inactive)	> 100 µM (inactive)	> 100 µM (inactive)	> 100 µM (inactive)	> 100 µM (inactive)	> 100 µM (inactive)	> 100 µM (inactive)	> 100 µM (inactive)	> 100 µM (inactive)	> 100 µM (inactive)	> 100 µM (inactive)	> 100 µM (inactive)	> 100 µM (inactive)	> 100 µM (inactive)	> 100 µM (inactive)	> 100 µM (inactive)	> 100 µM (inactive)
Cc1cc(-c2nc3ccccc3s2)ccc1N	32.9 µM (inactive)	0.0219 µM (active)	48.3 µM (inactive)	> 76.6 µM (inactive)	35.3 µM (inactive)	4.34 µM (inactive)	0.0322 µM (active)	40.3 µM (inactive)	26.6 µM (inactive)	26 µM (inactive)	> 71.1 µM (inactive)	46.7 µM (inactive)	38.6 µM (inactive)	50.8 µM (inactive)	56.9 µM (inactive)	> 72.4 µM (inactive)	42.5 µM (inactive)	18.5 µM (inactive)	21.9 µM (inactive)
O=c1[nH]c2c(C(F)(F)F)c(Cl)c(-c3ccccc3)nc2o1	10.9 µM (inactive)	41.8 µM (inactive)	15.7 µM (inactive)	22.8 µM (inactive)		57.8 µM (inactive)	20.2 µM (inactive)	23.3 µM (inactive)	14.8 µM (inactive)	23.2 µM (inactive)		16.1 µM (inactive)	25.1 µM (inactive)	21.5 µM (inactive)	28.3 µM (inactive)	33.8 µM (inactive)	26.7 µM (inactive)	32.1 µM (inactive)	4.83 µM (inactive)
CC(/C=C/C(=O)NO)=C\C(C)C(=O)c1ccc(N(C)C)cc1 (stereo not drawn)	0.0605 µM (active)	0.0259 µM (active)	0.424 µM (active)	0.479 µM (active)	0.0244 µM (active)	0.0841 µM (active)	< 0.01 µM (active)	< 0.01 µM (active)	0.261 µM (active)	0.0156 µM (active)	0.0267 µM (active)	< 0.01 µM (active)	0.0184 µM (active)	0.0251 µM (active)	0.0159 µM (active)	< 0.01 µM (active)	0.0256 µM (active)	< 0.01 µM (active)	0.0313 µM (active)
Cc1c(/C=N\NC(=S)N(C)CCN(C)C(=S)N/N=C\c2c(C)n(C)n(-c3ccccc3)c2=O)c(=O)n(-c2ccccc2)n1C			> 100 µM (inactive)		42.6 µM (inactive)	> 100 µM (inactive)	> 100 µM (inactive)	> 100 µM (inactive)	> 100 µM (inactive)	> 100 µM (inactive)	> 100 µM (inactive)	> 100 µM (inactive)	> 100 µM (inactive)	> 100 µM (inactive)	> 100 µM (inactive)	> 100 µM (inactive)	> 100 µM (inactive)	41.7 µM (inactive)	> 100 µM (inactive)
Cc1cc(C)cc(C(=N)c2ccccc2Cc2cccc3ccccc23)c1	17.7 µM (inactive)	17.4 µM (inactive)	37.8 µM (inactive)	16.9 µM (inactive)		27.9 µM (inactive)	16.3 µM (inactive)	9.66 µM (inactive)	16.7 µM (inactive)	45.8 µM (inactive)	16.1 µM (inactive)	10.1 µM (inactive)	> 100 µM (inactive)	17.3 µM (inactive)	17.2 µM (inactive)	15.2 µM (inactive)	11.4 µM (inactive)	7.28 µM (inactive)	16.6 µM (inactive)
COC1=CC(=O)N(C(=O)[C@@H](OC(=O)[C@@H](C)N(C)C(=O)[C@@H]2CCCN2C(=O)[C@H](C(C)C)N(C)C(=O)[C@@H](NC(=O)[C@H](C(C)C)N(Cc2ccccc2)Cc2ccccc2)C(C)C)C(C)C)[C@H]1Cc1ccccc1 (Bn2Val-V[NMeV]P[dNMeA]-X26)	> 100 µM (inactive)	> 100 µM (inactive)	> 100 µM (inactive)	> 100 µM (inactive)		38.2 µM (inactive)	> 100 µM (inactive)	> 100 µM (inactive)	> 44.5 µM (inactive)	6.3 µM (inactive)	> 37.2 µM (inactive)	4.32 µM (inactive)	13.4 µM (inactive)	> 26.2 µM (inactive)	> 100 µM (inactive)	> 100 µM (inactive)	> 31.3 µM (inactive)	> 100 µM (inactive)	23.9 µM (inactive)
COc1cc(Br)c(OC)c2c(OC)cc(C)cc12	> 100 µM (inactive)	> 100 µM (inactive)	96.6 µM (inactive)	> 100 µM (inactive)	14.3 µM (inactive)	> 100 µM (inactive)	54.5 µM (inactive)	67.8 µM (inactive)		44.6 µM (inactive)	> 100 µM (inactive)	> 100 µM (inactive)	89.9 µM (inactive)	50.1 µM (inactive)	70.6 µM (inactive)	> 100 µM (inactive)	> 100 µM (inactive)	> 100 µM (inactive)	
CC(=O)[C@@H]1[C@@H](OC(=O)CCC(C)COC2OC(CO)C(O)C(O)C2O)C[C@H]2[C@@H]3CC=C4C[C@@H](OC5OC(CO)C(OC6OC(C)C(O)C(O)C6O)C(O)C5OC5OC(C)C(O)C(O)C5O)CC[C@]4(C)[C@H]3CC[C@]12C (stereo partly drawn)	> 100 µM (inactive)		> 100 µM (inactive)	> 100 µM (inactive)	> 100 µM (inactive)	> 100 µM (inactive)	> 100 µM (inactive)		> 100 µM (inactive)	> 100 µM (inactive)		> 100 µM (inactive)	> 100 µM (inactive)	> 100 µM (inactive)	> 100 µM (inactive)	64.7 µM (inactive)	> 100 µM (inactive)	35.2 µM (inactive)	> 100 µM (inactive)
Cc1[nH]c(=O)[nH]c(=O)c1N(CCF)CCCl [FLUORODOPAN]		441 µM (inactive)	344 µM (inactive)	420 µM (inactive)		418 µM (inactive)	292 µM (inactive)	442 µM (inactive)		363 µM (inactive)	199 µM (inactive)	439 µM (inactive)	362 µM (inactive)	219 µM (inactive)	419 µM (inactive)		429 µM (inactive)	143 µM (inactive)	196 µM (inactive)
O=C(CNc1cccc([N+](=O)[O-])c1)Nn1c(-c2ccccc2)nc2ccccc2c1=O	0.508 µM (active)	0.201 µM (active)	1.87 µM (inactive)	0.513 µM (active)		0.0112 µM (active)	2.17 µM (inactive)	0.312 µM (active)	2.41 µM (inactive)	0.543 µM (active)	1.97 µM (inactive)	0.508 µM (active)	0.776 µM (active)	0.37 µM (active)	2.02 µM (inactive)	0.33 µM (active)	1.18 µM (inactive)	0.433 µM (active)	1.02 µM (active)
